In US20190262261A1, “RADIATION SENSITIZER OR ANTI-CANCER CHEMOTHERAPY SENSITIZER” (priority 2006, published 2019):

Legend:
[1] = Pain on intratumoral injection into SCCVII tumors of mice; format: in vivo, C3H/He mouse; settings: 1 ml, 27-gage needle, pH 6.8, 0.5% hydrogen peroxide, five mice per group, tumor about 10 mm
Description: (1) Mouse squamous epithelium cancer cells (SCCVII tumor cells) were transplanted into the right leg of the same kind of C3H/He mouse (8-week-old female), and the following experiment was conducted when the tumor had grown to about 10 mm in diameter.
When a 27-gage thin needle was used to intratumorally inject 1 ml of physiological saline (pH 6.8) containing 0.5% hydrogen peroxide into the tumors of five mice, the mice were all observed to feel strong pain, violently resisting the injection.

[2] = Pain on subcutaneous injection in normal volunteers; format: in vivo, human; settings: 1 ml subcutaneous, pH 6.8, 0.5% hydrogen peroxide
Description: (2) Based on the above results, the following experiment was conducted on five normal volunteers.
When a 27-gage thin needle was used to subcutaneously inject 1 ml of physiological saline (pH 6.8) containing 0.5% hydrogen peroxide into the inside of the left arms of five normal volunteers, all complained of severe pain limited to the injection site that lasted about 1 hour.

[3] = system: inoperable locally advanced malignant melanoma
Description: For a case of inoperable locally advanced malignant melanoma, sterilized cut cotton soaked in a hydrogen peroxide solution having a concentration of approximately 3 weight percent was used as a bolus, and irradiation by an electron beam from a linear accelerator (radiosensitization therapy) was then conducted.
Specifically, sterilized cut cotton soaked in a hydrogen peroxide solution having a concentration of approximately 3% was applied to the affected area of the locally advanced malignant melanoma as a bolus, and irradiation was conducted three times a week for four weeks, with each radiation dose amounting to 4 Gy (12 times, for a total radiation dosage of 48 Gy).

[4] = system: radioresistant osteosarcoma cell lines (HS-Os-1); settings: 0.1 mM in culture solution, radiation in the order of 10 Gy; cited from earlier work

Structure (SMILES): OO [hydrogen peroxide]
- pain of the intratumoral injection [1]: strong pain
- pain at the injection site ([2]; inside of arm, 27-gage needle, five volunteers): severe pain
- duration of pain at the injection site ([2]; left arm): about 1 hour
- length of malignant melanoma ([3]; 2 weeks after RT, approximately 3% solution on cut cotton as bolus, 4 Gy x 12, total 48 Gy, approximately 8 cm before radiotherapy): approximately 5 cm
- tumor outcome (summary in disclosure) ([3]; approximately 3 weight percent solution as bolus, 4 Gy three times a week, total 48 Gy): disappearance of the tumor
- tumor outcome ([3]; three months after termination of radiotherapy, approximately 3% solution as bolus, total 48 Gy): almost disappeared
- effect on irradiated cells (reactive oxygen species, apoptosis) [4]: giving rise to apoptosis
